From paper PMC4766415 (Nature Communications, 2016)

Experiments:
[1] = tested on: Rat Schwannoma cells (RN22); assay: Caspase-3 activation by Y78F-TTR oligomers in RN22 cells; conditions: Y78F-TTR aggregates 2 μM formed with 20 μM compound; 24 h exposure
TTR tetramer = tested on: T1, TTR tetramer; assay: TTR stabilization after oral administration in humans (immunoturbidity, urea); format: in vivo, human; conditions: for FOI (TTR tetramer after 48 h urea/TTR tetramer at time 0): 4.8 M urea
T1 construct: Plasma TTR was then immunoprecipitated; from tissue; host or cells: human plasma
Experimental: TTR stabilization in vivo was measured using an immunoturbidimetric assay as in Fig. 4c. The fraction of initial tetramer concentration (FOI) was determined in triplicate for each sample (FOI=TTR tetramer after 48 h urea treatment/TTR tetramer at time 0 in the presence of urea).
For TTR stabilization analysis, frozen plasma samples were thawed on ice. Samples were then mixed with a 8 M urea solution (in 40 mM sodium phosphate pH 7.4 and 80 mM KCl) to a final urea concentration of 4.8 M. One aliquot was taken immediately after adding urea (time 0) and the rest were incubated for 48 h at controlled RT conditions. After the incubation time points (0 or 48 h), TTR was crosslinked with 40 mM glutaraldehyde (2.5 M stock solution). The samples were quickly vortexed and incubated for 4 min at RT. Then, NaBH4 was added to a final concentration of 48 mM to quench the reaction. Samples were transferred to a measuring tube and read by immunoturbidity after 5 min at RT. Immunoturbidity was measured in a Beckman Coulter AU680 ISE instrument (Beckman Coulter), using the Olympus OSR6175 reagent and calibrator ODR3029 (Olympus) according to the manufacturer's instructions. Analysis was performed in triplicates. Informed consent was obtained from all subjects and the protocol was approved by the Ethics Committee of Hospital Vall d'Hebron (Barcelona).

L55P-TTR = tested on: T2, L55P-TTR; assay: Dot-blot filter assay of L55P-TTR aggregation secreted by RN22 cells; format: cell-based, human; conditions: 1 μM in the medium
T2 construct: TTR is composed of four identical 127 amino-acid residue β-sheet-rich subunits; expressed in transfected cells; host or cells: rat Schwannoma RN22 cells, metallothionein promoter, ZnSO4 induction
Experimental: The extent of extracellular L55P-TTR aggregation was monitored by a filter trap assay followed by TTR immunodetection.
The rat Schwannoma cell line RN22 stably co-transfected with TTR L55P cDNA under the control of the metallothionein promoter was used to test the inhibitors of TTR aggregation as in ref. [51]. […] TTR in the medium was quantified by ELISA, and the volume of medium corresponding to 500 ng of TTR was applied on to a 0.2-μm pore cellulose acetate membrane filter (Schleicher and Schuell) using a manifold system (Gibco BRL) to separate soluble proteins from aggregates. […] Detection was performed with ECL (GE Healthcare). Dot blot quantification was performed using the ImageQuant program. The percentage of aggregation inhibition was calculated as 100 × ((Control—Treated)/Control). Experiments were repeated three times in triplicate.

[2] = tested on: T3, tetrameric TTR in human plasma; assay: Ex vivo plasma TTR stability by immunoturbidity after urea denaturation; format: biochemical; conditions: 4.8 M urea, 48 h; pooled plasma of healthy volunteers
T3 construct: Plasma TTR was then immunoprecipitated; from tissue; host or cells: human plasma
Description: Stabilization of plasma TTR under physiological conditions was confirmed using an immunoturbidity assay[29] (Fig. 4c). […] After urea treatment, samples were crosslinked with glutaraldehyde and the concentration of TTR determined by immunoturbidity. Treatment with urea and glutaraldehyde decreases immunoturbidity signal due to the extensive modification of denatured TTR monomers by glutaraldehyde, hampering antibody recognition. As TTR denaturation is preceded by tetramer dissociation, the signal roughly correlates with tetramer stability.
A pool of lithium-heparin plasma samples from healthy volunteers stored at −80 °C was thawed on ice. Partially clotted particles were removed by spinning the samples for 2 min at 10,000g. […] Addition volume was limited to maximum 1.5% (v/v) of sample. A control in which DMSO vehicle was added was included in the experimental design. Samples were then mixed with a urea solution (8 M in 50 mM potassium phosphate pH 7.0, 100 mM NaCl, 1 mM dithiothreitol, 1 mM EDTA) to a final urea concentration of 4.8 M, and incubated for various time points at controlled RT conditions. […] Samples were transferred to a measuring tube and read by immunoturbidity after 5 min at RT. Immunoturbidity was measured in a Siemens Automate Dimension EXL200 instrument, using the Siemens Prealbumin (PALB) reagent and calibrator according to the manufacturer's instructions. […]

[3] = tested on: T4, TTR in human plasma (WT-TTR and V30M-TTR); assay: [125I]T4 competition in human plasma, native gel electrophoresis; format: binding; conditions: 1 mM; plasma from normal (WT-TTR) and V30M-TTR FAP patient; 1 h RT
T4 construct: human plasma from a normal (WT-TTR) and from an FAP patient carrying the V30M-TTR mutation; from tissue; host or cells: human plasma of normal donors and of V30M-TTR carriers
Description: Error bars indicate s.e.m. (n=3). […] Error bars indicate s.e.m. (n=3).

AC16 cells = assay: TTR-induced cytotoxicity in AC16 cells, resazurin reduction assay; format: cell-based, human; conditions: 16 μM compound, 8 μM TTR; 24 h
Description: Error bars indicate s.e.m. […] Error bars indicate s.e.m. (n=4). […] Error bars indicate s.e.m. (n=3).

WT-TTR = WT-TTR (Homo sapiens, UniProt P02766); assay: Isothermal titration calorimetry, WT-TTR
[4] = tested on: WT and V30M-TTR tetramers in plasma; assay: TTR tetramer stability in human plasma by IEF under semi-denaturing conditions; format: biochemical; conditions: 1.4 mM, overnight 4 °C, 4 M urea
V122I-TTR = V122I-TTR (Homo sapiens, UniProt P02766, V142I); assay: Isothermal titration calorimetry, V122I-TTR
[5] = no reference given; cited from earlier work
Y78F-TTR = Y78F-TTR (Homo sapiens, UniProt P02766, Y98F); assay: Y78F-TTR aggregation inhibition, turbidity at 340 nm, pH 4.2
[6] = general model, two ligand-binding sites
[7] = two identical and independent binding sites

- TΔs1 binding entropy (WT-TTR; first ligand): 1.8 kcal/mol
- Δh1 site-specific binding enthalpy (WT-TTR; first ligand): -8.7 kcal/mol
- ΔH1 overall binding enthalpy (WT-TTR; [6]): -8.7 kcal/mol
- ΔH2 overall binding enthalpy (WT-TTR; [6]): -18.4 kcal/mol
- β2 overall association constant (WT-TTR; [6]): 7.9 × 10^14 M^−2
- TΔs2 binding entropy (WT-TTR; second ligand): 0.2 kcal/mol
- Δh2 site-specific binding enthalpy (WT-TTR; second ligand): -9.7 kcal/mol
- TΔs binding entropy (V122I-TTR; called unfavourable): 1.6 kcal/mol
- Δh binding enthalpy per site (V122I-TTR; [7]): -11.5 kcal/mol
- β1 association constant (V122I-TTR; [7]): 1.8e+07 M⁻¹
- RA (%): percent reduction of TTR aggregation rate at high inhibitor concentration (Y78F-TTR): 89.13%
Compound: Cc1ccc(C(=O)c2cc(O)c(O)c([N+](=O)[O-])c2)cc1 [tolcapone]
- reduction in Caspase-3 activation [1]: 27.8%±6.1
- FOI (TTR tetramer after 48 h urea/TTR tetramer at time 0) (TTR tetramer; HV1, 200 mg oral, plasma 2 h after dose): 0.78±0.04
- FOI (TTR tetramer after 48 h urea/TTR tetramer at time 0) (TTR tetramer; HV2, 2 × 200 mg oral, plasma 2 h after last dose): 0.98±0.02
- TTR stabilization (TTR tetramer; single dose of 200 mg, plasma 13.6 μM at Tmax): 359%
- reduction of L55P-TTR aggregation compared with untreated cells (L55P-TTR): ~90%
- stabilization of plasma TTR against urea denaturation [2]: stabilized TTR in a dose-responsive manner
- radioactive T4-TTR band in the presence of compound [3]: no longer visible
- effect on WT-TTR and V122I-TTR induced reduction in cell viability (AC16 cells): rescued this toxic effect
- TTR tetramer stabilization in plasma [4]: stabilized WT and V30M-TTR tetramers in plasma
- half-life in plasma [5]: 2 to 3 h
